For three molecules, Ki results are on record in US12110288B2, “MASP-2 inhibitors and methods of use” (Omeros Corporation, priority 2019, dated 2024).

This experiment has as its target T1, MASP-2 (CCP1-CCP2-SP) (Homo sapiens, UniProt O00187).
T1 construct: 15 μL of Enzyme MASP-2 (CCP1-CCP2-SP) in Assay Buffer
The experiment can be described thus: Enzymatic Assay for MASP-2. Format: biochemical. The conditions noted are these: fluorogenic substrate based on C2 cleavage site, room temperature, 20 mM HEPES pH 7.4. The gist of the method:
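Fluorogenic substrate modelled on the C2 cleavage site, run at room temperature in 20 mM HEPES pH 7.4, 140 mM NaCl, 0.1% Tween 20; compounds were added from DMSO serial dilutions before enzyme and substrate. Reactions ran 20 min and were stopped with 0.1 M acetic acid before fluorescence was read. % activity was normalised to DMSO-only and no-enzyme controls; IC50 was taken as Ki, with tight- or slow-binding inhibitors handled separately.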

Counter-ions that a name gives are not always drawn.

T1 sequence (O00187 445-686 limits assumed): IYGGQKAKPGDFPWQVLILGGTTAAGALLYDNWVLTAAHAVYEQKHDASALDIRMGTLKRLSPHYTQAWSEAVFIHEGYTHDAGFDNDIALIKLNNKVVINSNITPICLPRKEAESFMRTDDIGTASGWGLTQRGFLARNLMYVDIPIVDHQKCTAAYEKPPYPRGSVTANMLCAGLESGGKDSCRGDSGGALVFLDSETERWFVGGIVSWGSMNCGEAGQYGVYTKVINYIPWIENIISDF
T1 sequence (O00187 298-444 partner limits assumed): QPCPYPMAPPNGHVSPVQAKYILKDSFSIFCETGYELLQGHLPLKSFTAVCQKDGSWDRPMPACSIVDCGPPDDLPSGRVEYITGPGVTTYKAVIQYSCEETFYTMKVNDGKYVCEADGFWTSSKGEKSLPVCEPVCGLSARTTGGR

In turn, `Cn1cc(-c2cnc(NCCc3ccccc3)c(=O)n2CC(=O)NCc2ccc3c(c2)CCNC3)cn1` [Compound 80, 2-(6-(1-Methyl-1H-Pyrazol-4-yl)-2-Oxo-3-(Phenethylamino)Pyrazin-1(2H)-yl)-N-((1,2,3,4-Tetrahydroisoquinolin-6-yl)Methyl)Acetamide] registered a Ki of 2.5 to 10 µM.

On to `Cn1cc(-c2cnc(NCCc3ccccc3)c(=O)n2CC(=O)NCc2cc3c(s2)CNCC3)cn1` [Compound 79], for which the inhibition constant Ki was under 0.5 µM.

Molecule `O=C(Cn1c(-c2ccccc2)cnc(NCC2(c3ccc(C(F)(F)F)cc3)CC2)c1=O)NCc1cc2cnccc2[nH]1` [Compound 60, N-((1H-Pyrrolo[3,2-c]pyridin-2-yl)methyl)-2-(2-oxo-6-phenyl-3-(((1-(4-(trifluoromethyl)phenyl)cyclopropyl)methyl)amino)pyrazin-1(2H)-yl)acetamide trifluoroacetate] registered an inhibition constant Ki of under 0.5 µM.
